# Test results: patent US8372967B2, “Compounds and methods for modulating expression of GCCR” (Isis Pharmaceuticals, Inc., priority 2006, dated 2013)
# Strand notation (5' to 3'): a small letter for the sugar, then the base; units joined by * are phosphorothioate-linked, units joined directly phosphodiester-linked; [ ] holds rarer units or linkages, { } end groups; capitals alone tell only the bases. e = 2'-O-(2-methoxyethyl) (MOE); [5mC] = 5-methylcytosine; d = 2'-deoxy (DNA)
# Assays:
# SGLT2 mRNA = SGLT2 mRNA in kidney of Balb/c mice, twenty 1-10-1 MOE gapmers, PPS 534 and PPS 553 (Table 74); format: in vivo, mouse; conditions: i.p. 350 nmol/kg twice per week for two weeks
# Method: Twenty 1-10-1 MOE gapmers that are complementary to human/monkey/mouse/rat SGLT2 were designed, synthesized and tested in vivo for suppression of SGLT2 mRNA levels in kidney. Data are averages from two experiments in which male 6-week old Balb/c mice were administered intraperitoneal injections of 350 nmol/kg of oligonucleotide, twice per week, over a period of two weeks (a total of four injections). Mice were sacrificed 48 hours following the last administration and evaluated for SGLT2 mRNA levels in kidney. SGLT2 mRNA levels were determined by quantitative real-time PCR analysis according to standard procedures, using two different PCR primer probe sets, primer probe set (PPS) 534 and PPS 553. SGLT2 mRNA levels were normalized to cyclophilin mRNA levels, which were also measured by quantitative real-time PCR.
# PCSK9 mRNA [1] = assay: Dose-dependent antisense inhibition of PCSK9 in Hep3B cells, EC50 (Table 76); format: cell-based, human
# Method: (§1) When cells reached appropriate confluency, they were treated with oligonucleotide using LIPOFECTIN® as described. […] Cells were treated and data were obtained in duplicate or triplicate. […] Cells were harvested 16-24 hours after oligonucleotide treatment.
# Short antisense compounds targeted to a PCSK9 nucleic acid were tested in a dose response experiment Hep3B cells. After the treatment period, RNA was isolated from the cells and PCSK9 mRNA levels were measured by quantitative real-time PCR, as described herein. PCSK9 mRNA levels were normalized to cyclophilin mRNA levels, as measured by real-time PCR using a cyclophilin-specific primer probe set. Results are presented as percent inhibition of PCSK9, relative to untreated control cells. […] As illustrated in the following table, PCSK9 mRNA levels were reduced in a dose-dependent manner.
# PCSK9 mRNA [2] = format: cell-based, human; conditions: Hep3B cells, 100 nM, relative to untreated control cells; for % Inhib: 0 = no reduction observed
# Method: as §1
# Prior to quantitative PCR analysis, primer-probe sets specific to the target gene being measured were evaluated for their ability to be “multiplexed” with a GAPDH amplification reaction. After isolation the RNA is subjected to sequential reverse transcriptase (RT) reaction and real-time PCR, both of which are performed in the same well. RT and PCR reagents were obtained from Invitrogen Life Technologies (Carlsbad, Calif.). […] The RT reaction was carried out by incubation for 30 minutes at 48° C. Following a 10 minute incubation at 95° C. to activate the PLATIN 9M® Taq, 40 cycles of a two-step PCR protocol were carried out: 95° C. for 15 seconds (denaturation) followed by 60° C. for 1.5 minutes (annealing/extension).
# 170 μL of RiboGreen® working reagent (RiboGreen® reagent diluted 1:350 in 10 mM Tris-HCl, 1 mM EDTA, pH 7.5) was pipetted into a 96-well plate containing 30 μL purified cellular RNA. The plate was read in a CytoFluor® 4000 (PE Applied Biosystems) with excitation at 485 nm and emission at 530 nm.
# Short antisense compounds targeted to a PCSK9 nucleic acid were tested for their effects on PCSK9 mRNA in vitro. The Isis No, gapmer motif and SEQ ID NO of each short antisense compound are shown again in Table 75. Cultured Hep3B cells were treated with 100 nM of short antisense compound. 5-10-5 MOE gapmers targeted to a PCSK9 nucleic acid were used as positive controls. After the treatment period, RNA was isolated from the cells and PCSK9 mRNA levels were measured by quantitative real-time PCR, as described herein. PCSK9 mRNA levels were adjusted according to total RNA content as measured by RIBOGREEN®. Results are presented in Table 75 as percent inhibition of PCSK9 (% Inhib), relative to untreated control cells.
# [3] = primer probe set 534, normalized to cyclophilin
# [4] = primer probe set 553, normalized to cyclophilin
Substance,% change in SGLT2 mRNA vs saline (SGLT2 mRNA; [3]),% change in SGLT2 mRNA vs saline (SGLT2 mRNA; [4]),% Inhibition (PCSK9 mRNA [1]; 5 nM),% Inhibition (PCSK9 mRNA [1]; 10 nM),% Inhibition (PCSK9 mRNA [1]; 20 nM),% Inhibition (PCSK9 mRNA [1]; 40 nM),% Inhibition (PCSK9 mRNA [1]; 80 nM),% Inhibition (PCSK9 mRNA [1]; 160 nM),% Inhibition Range (PCSK9 mRNA [2]),% Inhib (PCSK9 mRNA [2])
370717 (antisense eT*dA*dG*d[5mC]*d[5mC]*dA*d[5mC]*d[5mC]*dA*dA*d[5mC]*eT) [compound 370717],−84.4 % Saline,−84.3 % Saline,–,–,–,–,–,–,–,–
379684 (antisense eT*dG*dT*d[5mC]*dA*dG*d[5mC]*dA*dG*dG*dA*eT) [compound 379684],−45.0 % Saline,−43.2 % Saline,–,–,–,–,–,–,–,–
379685 (antisense eT*dG*dA*d[5mC]*d[5mC]*dA*dG*d[5mC]*dA*dG*dG*eA) [compound 379685],−10.3 % Saline,−20.5 % Saline,–,–,–,–,–,–,–,–
379686 (antisense eA*d[5mC]*d[5mC]*dA*d[5mC]*dA*dA*dG*d[5mC]*d[5mC]*dA*eA) [compound 379686],−71.9 % Saline,−75.1 % Saline,–,–,–,–,–,–,–,–
379687 (antisense eG*dA*dT*dG*dT*dT*dG*d[5mC]*dT*dG*dG*e[5mC]) [compound 379687],−47.1 % Saline,−52.1 % Saline,–,–,–,–,–,–,–,–
379688 (antisense e[5mC]*d[5mC]*dA*dA*dG*d[5mC]*d[5mC]*dA*d[5mC]*dT*dT*eG) [compound 379688],−62.6 % Saline,−70.4 % Saline,–,–,–,–,–,–,–,–
379689 (antisense eA*dG*dA*dG*d[5mC]*dG*d[5mC]*dA*dT*dT*d[5mC]*e[5mC]) [compound 379689],−17.5 % Saline,−30.4 % Saline,–,–,–,–,–,–,–,–
379690 (antisense eA*d[5mC]*dA*dG*dG*dT*dA*dG*dA*dG*dG*e[5mC]) [compound 379690],−18.9 % Saline,−22.5 % Saline,–,–,–,–,–,–,–,–
379691 (antisense eA*dG*dA*dT*d[5mC]*dT*dT*dG*dG*dT*dG*eA) [compound 379691],−35.0 % Saline,−48.6 % Saline,–,–,–,–,–,–,–,–
379692 (antisense eT*dG*dT*dT*d[5mC]*d[5mC]*dA*dG*d[5mC]*d[5mC]*d[5mC]*eA) [compound 379692],−88.1 % Saline,−88.5 % Saline,–,–,–,–,–,–,–,–
379693 (antisense e[5mC]*dA*dT*dG*dG*dT*dG*dA*dT*dG*d[5mC]*e[5mC]) [compound 379693],−51.6 % Saline,−59.9 % Saline,–,–,–,–,–,–,–,–
379694 (antisense eG*dA*d[5mC]*dG*dA*dA*dG*dG*dT*d[5mC]*dT*eG) [compound 379694],−42.1 % Saline,−54.4 % Saline,–,–,–,–,–,–,–,–
379695 (antisense eG*dG*dA*d[5mC]*dA*d[5mC]*d[5mC]*dG*dT*d[5mC]*dA*eG) [compound 379695],−52.5 % Saline,−64.1 % Saline,–,–,–,–,–,–,–,–
379696 (e[5mC]*dA*dG*d[5mC]*dT*dT*d[5mC]*dA*dG*dG*dT*eA; antisense) [compound 379696],−24.6 % Saline,−36.2 % Saline,–,–,–,–,–,–,–,–
400307 (antisense e[5mC]*eG*dG*d[5mC]*d[5mC]*dG*d[5mC]*dT*dG*dA*d[5mC]*d[5mC]*eA*e[5mC]) [compound 400307],–,–,35%,39%,45%,56%,92%,93%,70-80%,76%
400308 (antisense e[5mC]*e[5mC]*dG*dG*d[5mC]*d[5mC]*dG*d[5mC]*dT*dG*dA*d[5mC]*e[5mC]*eA) [compound 400308],–,–,31%,10%,26%,40%,77%,86%,50-60%,55%
400309 (antisense e[5mC]*e[5mC]*d[5mC]*dG*dG*d[5mC]*d[5mC]*dG*d[5mC]*dT*dG*dA*e[5mC]*e[5mC]) [compound 400309],–,–,49%,23%,38%,12%,72%,78%,40-50%,44%
400327 (antisense eG*eT*d[5mC]*d[5mC]*d[5mC]*d[5mC]*dA*dA*dA*dG*dT*d[5mC]*e[5mC]*e[5mC]) [compound 400327],–,–,5%,37%,23%,49%,43%,55%,30-40%,36%
400330 (antisense e[5mC]*e[5mC]*dA*d[5mC]*dG*dT*dG*dG*dG*d[5mC]*dA*dG*e[5mC]*eA) [compound 400330],–,–,8%,32%,40%,69%,82%,71%,40-50%,43%
400331 (antisense eG*e[5mC]*d[5mC]*dA*d[5mC]*dG*dT*dG*dG*dG*d[5mC]*dA*eG*e[5mC]) [compound 400331],–,–,29%,40%,47%,63%,75%,82%,30-40%,35%
400352 (antisense e[5mC]*eA*d[5mC]*d[5mC]*d[5mC]*dT*d[5mC]*dA*d[5mC]*d[5mC]*d[5mC]*d[5mC]*e[5mC]*eA) [compound 400352],–,–,7%,16%,40%,44%,63%,64%,20-30%,29%
400353 (antisense eA*e[5mC]*dA*d[5mC]*d[5mC]*d[5mC]*dT*d[5mC]*dA*d[5mC]*d[5mC]*d[5mC]*e[5mC]*e[5mC]) [compound 400353],–,–,15%,27%,23%,43%,54%,48%,10-20%,19%
